What was measured:
Assay in all cases: Post-Emergent Test III (Wheat and Barley)
KCHSC (kochia) = assay type: in vivo, Kochia scoparia; conditions: for pest or weed control at 35 g/ha / pest or weed control at 70 g/ha / pest or weed control at 140 g/ha: Bassia scoparia, post-emergence, 504 h, postemergence, read-out: Visual Growth Reduction (%) 21 Days After Application, KCHSC; for pest or weed control at 35 g/ha: 35 g ai/ha; for pest or weed control at 70 g/ha: 70 g ai/ha; for pest or weed control at 140 g/ha: 140 g ai/ha; for GR50, KCHSC: effective dose for growth reduction of 50 percent; for GR50, KCHSC / GR80, KCHSC: probit analysis; for GR80, KCHSC: effective dose for growth reduction of 80 percent
Procedure: (§1) Seeds of the desired test plant species were planted in Sun Gro MetroMix® 306 planting mixture, which typically has a pH of 6.0 to 6.8 and an organic matter content of about 30 percent, in plastic pots with a surface area of 103.2 square centimeters (cm^2). When required to ensure good germination and healthy plants, a fungicide treatment and/or other chemical or physical treatment was applied. The plants were grown for 7-36 days in a greenhouse with an approximate 14 h photoperiod which was maintained at about 18° C. during the day and 17° C. during the night. Nutrients and water were added on a regular basis and supplemental lighting was provided with overhead metal halide 1000-Watt lamps as necessary. The plants were employed for testing when they reached the second or third true leaf stage.
(§2) A weighed amount, determined by the highest rate to be tested, of each test compound was placed in a 25 mL glass vial and was dissolved in 4 mL of a 97:3 v/v mixture of acetone and DMSO to obtain concentrated stock solutions. […] The concentrated stock solutions obtained were diluted with 20 mL of an aqueous mixture containing acetone, water, isopropyl alcohol, DMSO, Agri-Dex crop oil concentrate, and X-77 surfactant in a 48:39:10:1.5:1.5:0.02 v/v ratio to obtain spray solutions containing the highest application rates. Additional application rates were obtained by serial dilution of 12 mL of the high rate solution into a solution containing 2 mL of 97:3 v/v mixture of acetone and DMSO and 10 mL of an aqueous mixture containing acetone, water, isopropyl alcohol, DMSO, Agri-Dex crop oil concentrate, and X-77 surfactant in a 48:39:10:1.5:1.5:0.02 v/v ratio to obtain ½×, ¼×, ⅛× and 1/16× rates of the high rate. Compound requirements are based upon a 12 mL application volume at a rate of 187 liters per hectare (L/ha). Formulated compounds were applied to the plant material with an overhead Mandel track sprayer equipped with 8002E nozzles calibrated to deliver 187 L/ha over an application area of 0.503 square meters at a spray height of 18 inches (43 cm) above the average plant canopy height. Control plants were sprayed in the same manner with the solvent blank.
(§3) The treated plants and control plants were placed in a greenhouse as described above and watered by subirrigation to prevent wash-off of the test compounds. After 21 dAYS, the condition of the test plants as compared with that of the untreated plants was determined visually and scored on a scale of 0 to 100 percent where 0 corresponds to no injury and 100 corresponds to complete kill and presented as indicated in Table A.
(§4) By applying the well-accepted probit analysis as described by J. Berkson in Journal of the American Statistical Society, 48, 565 (1953) and by D. Finney in “Probit Analysis” Cambridge University Press (1952), herbicidal injury of a specific compound at various rates can be used to calculate GR10, GR20, GR50, GR80 and GR90 values, which are defined as growth reduction factors that correspond to the effective dose of herbicide required to provide plant growth reduction (GR) of 10 percent, 20 percent, 50 percent, 80 percent and 90 percent, respectively. Probit analysis was applied to data collected from multiple dose rates of individual compounds utilizing the procedures explained in the following examples. The analysis of those dose rates is captured in the following tables.

ALOMY (blackgrass) = assay type: in vivo, Alopecurus myosuroides; conditions: for pest or weed control at 35 g/ha / pest or weed control at 70 g/ha / pest or weed control at 140 g/ha: Alopecurus myosuroides, post-emergence, 504 h, postemergence, read-out: Visual Growth Reduction (%) 21 Days After Application, ALOMY; for pest or weed control at 35 g/ha: 35 g ai/ha; for pest or weed control at 70 g/ha: 70 g ai/ha; for pest or weed control at 140 g/ha: 140 g ai/ha; for GR50, ALOMY: effective dose for growth reduction of 50 percent; for GR50, ALOMY / GR80, ALOMY: probit analysis; for GR80, ALOMY: effective dose for growth reduction of 80 percent
Procedure: as §1, §2, §3, §4

APESV (windgrass) = assay type: in vivo, Apera spica-venti; conditions: for pest or weed control at 35 g/ha / pest or weed control at 70 g/ha / pest or weed control at 140 g/ha: Apera spica-venti, post-emergence, 504 h, postemergence, read-out: Visual Growth Reduction (%) 21 Days After Application, APESV; for pest or weed control at 35 g/ha: 35 g ai/ha; for pest or weed control at 70 g/ha: 70 g ai/ha; for pest or weed control at 140 g/ha: 140 g ai/ha; for GR50, APESV: effective dose for growth reduction of 50 percent; for GR50, APESV / GR80, APESV: probit analysis; for GR80, APESV: effective dose for growth reduction of 80 percent
Procedure: as §1, §2, §3, §4

LOLSS = assay type: in vivo; conditions: for GR50, LOLSS: effective dose for growth reduction of 50 percent; for GR50, LOLSS / GR80, LOLSS: probit analysis; for GR80, LOLSS: effective dose for growth reduction of 80 percent; for pest or weed control at 35 g/ha / pest or weed control at 70 g/ha / pest or weed control at 140 g/ha: post-emergence, 504 h, postemergence, read-out: Visual Growth Reduction (%) 21 Days After Application, LOLSS; for pest or weed control at 35 g/ha: 35 g ai/ha; for pest or weed control at 70 g/ha: 70 g ai/ha; for pest or weed control at 140 g/ha: 140 g ai/ha
Procedure: as §1, §2, §3, §4

HORSS = assay type: in vivo; conditions: for pest or weed control at 35 g/ha / pest or weed control at 70 g/ha / pest or weed control at 140 g/ha: Hordeum vulgare, post-emergence, 504 h, postemergence, read-out: Visual Growth Reduction (%) 21 Days After Application, HORSS; for pest or weed control at 35 g/ha: 35 g ai/ha; for pest or weed control at 70 g/ha: 70 g ai/ha; for pest or weed control at 140 g/ha: 140 g ai/ha; for GR20, HORSS: effective dose for growth reduction of 20 percent, probit analysis
Procedure: as §1, §2, §3, §4

TRZSS = assay type: in vivo; conditions: for pest or weed control at 35 g/ha / pest or weed control at 70 g/ha / pest or weed control at 140 g/ha: Triticum aestivum, post-emergence, 504 h, postemergence, read-out: Visual Growth Reduction (%) 21 Days After Application, TRZSS; for pest or weed control at 35 g/ha: 35 g ai/ha; for pest or weed control at 70 g/ha: 70 g ai/ha; for pest or weed control at 140 g/ha: 140 g ai/ha; for GR20, TRZSS: effective dose for growth reduction of 20 percent, probit analysis
Procedure: as §1, §2, §3, §4

Compound | pest or weed control at 35 g/ha (KCHSC (kochia)) [%] | pest or weed control at 70 g/ha (KCHSC (kochia)) [%] | GR50, KCHSC (KCHSC (kochia)) [g ai/ha] | GR80, KCHSC (KCHSC (kochia)) [g ai/ha] | pest or weed control at 35 g/ha (ALOMY (blackgrass)) [%] | pest or weed control at 70 g/ha (ALOMY (blackgrass)) [%] | GR50, ALOMY (ALOMY (blackgrass)) [g ai/ha] | GR80, ALOMY (ALOMY (blackgrass)) [g ai/ha] | pest or weed control at 35 g/ha (APESV (windgrass)) [%] | pest or weed control at 70 g/ha (APESV (windgrass)) [%] | GR50, APESV (APESV (windgrass)) [g ai/ha] | GR80, APESV (APESV (windgrass)) [g ai/ha] | pest or weed control at 35 g/ha (LOLSS) [%] | pest or weed control at 70 g/ha (LOLSS) [%] | pest or weed control at 35 g/ha (HORSS) [%] | pest or weed control at 70 g/ha (HORSS) [%] | GR20, HORSS (HORSS) [g ai/ha] | pest or weed control at 35 g/ha (TRZSS) [%] | pest or weed control at 70 g/ha (TRZSS) [%] | GR20, TRZSS (TRZSS) [g ai/ha] | other results
COC(=O)c1nc(-c2ccc(C3CC3)nc2)c(F)c(N)c1Cl [Compound 49] | 95 to 100 | 95 to 100 | 9 | 17 | 0 to 29 | 30 to 44 | >140 | >140 | 85 to 94 | 75 to 84 | 1 | 24 | 95 to 100 | 85 to 94 | 75 to 84 | 85 to 94 | 1 | 75 to 84 | 85 to 94 | 1 | pest or weed control at 140 g/ha (KCHSC (kochia)): 85 to 94%; pest or weed control at 140 g/ha (ALOMY (blackgrass)): 45 to 59%; pest or weed control at 140 g/ha (APESV (windgrass)): 85 to 94%; GR50, LOLSS (LOLSS): 15 g ai/ha; GR80, LOLSS (LOLSS): 31 g ai/ha; pest or weed control at 140 g/ha (LOLSS): 85 to 94%; pest or weed control at 140 g/ha (HORSS): 85 to 94%; pest or weed control at 140 g/ha (TRZSS): 85 to 94%
Cc1c(-c2ccc(C(F)(F)F)nc2)nc(C(=O)O)c(Cl)c1N [Compound 51, 4-amino-5-chloro-3-methyl-6′-(trifluoromethyl)-[2,3′-bipyridine]-6-carboxylic acid] | 0 to 29 | 0 to 29 |  |  | 0 to 29 | 0 to 29 | >140 | >140 | 0 to 29 | 60 to 74 | 63 | 139 | 0 to 29 | 0 to 29 | 60 to 74 | 75 to 84 | 1 | 60 to 74 | 75 to 84 | 1 | 
COC(=O)c1nc(-c2ccc(C(F)(F)F)nc2)c(F)c(N)c1Cl [Compound 59, methyl 4-amino-5-chloro-3-fluoro-6′-(trifluoromethyl)-[2,3′-bipyridine]-6-carboxylate] | 60 to 74 | 75 to 84 | 27 | 57 | 30 to 44 | 60 to 74 | 48 | 80 | 30 to 44 | 75 to 84 | 42 | 72 | 0 to 29 | 30 to 44 | 75 to 84 | 75 to 84 | 4 | 60 to 74 | 75 to 84 | 4 | GR50, LOLSS (LOLSS): >140 g ai/ha; GR80, LOLSS (LOLSS): >140 g ai/ha
Nc1c(F)c(-c2ccc(OC(F)F)nc2)nc(C(=O)O)c1Cl [Compound 66] | 0 to 29 | 45 to 59 | 80 | >140 | 0 to 29 | 0 to 29 | 140 | >140 | 0 to 29 | 0 to 29 | 130 | >140 | 0 to 29 | 0 to 29 | 60 to 74 | 60 to 74 | 15 | 75 to 84 | 85 to 94 | 8 | pest or weed control at 140 g/ha (KCHSC (kochia)): 60 to 74%; pest or weed control at 140 g/ha (ALOMY (blackgrass)): 45 to 59%; pest or weed control at 140 g/ha (APESV (windgrass)): 60 to 74%; GR50, LOLSS (LOLSS): >140 g ai/ha; GR80, LOLSS (LOLSS): >140 g ai/ha; pest or weed control at 140 g/ha (LOLSS): 30 to 44%; pest or weed control at 140 g/ha (HORSS): 85 to 94%; pest or weed control at 140 g/ha (TRZSS): 95 to 100%
